From patent US20060153773A1, “Contrast medium for mri” (priority 2003, published 2006) come the findings set out here.

For data set [1], the system named is injured left common carotid artery. Briefly: In vivo MRI of common carotid arteries in balloon-injured living rat. The note with it: for MRI signal in the injured left common carotid artery (image): 2 ml of 24 mM (about 160 μM/kg) via left femoral vein, T1 weighted spin echo, FIG. 6; for MRI signal intensity of injured common carotid artery versus normal common carotid artery: 2 ml of 24 mM via left femoral vein, time course, own agent stated at ten minutes after administration, FIG. 7. The method, then:
This example is to evaluate the imaging capability of the contrast agent of the present invention by means of an in vivo experiment using a living rat. A rat (weighing about 300 g) was anesthetized with pentobarbital, and inserted with a balloon-tip catheter through the left femoral artery [FIG. 5 (a), 1]. The left common carotid artery was scraped by the balloon to injure the endothelia thereof. Then the rat was injected, through the left femoral vein [FIG. 5 (a), 2], with 2 ml (about 160 μM/kg) of physiological aqueous solution of the contrast agent as prepared in Example 1 (24 mM). At predetermined lapses of time, images were taken by MRI (the T1 weighted spin echo method) around the right and left common carotid artery [the cross section along the line N-N in FIG. 5 (a)]. The rat was supplementally anesthetized in order to keep it motionless during the imaging operation. For comparison, an evaluation experiment was also carried out in the same manner with a conventional agent, DTPA-Gd. […] In FIG. 6, by “injured” is designated the left common carotid artery injured by the balloon, corresponding to 4 in FIG. 5 (b), while by “intact” is designated the right common carotid artery, which is normal and corresponds to 5 in FIG. 5 (b). The numeral 3 in FIG. 5 (b) denotes the bronchium.

A short description of data set [2]: Gd content remaining in various organs of the rat (ICP). The data set is classed as in vivo. On the procedure: This was also verified by measuring Gd (gadolinium) content remaining in various organs of the rat, in which the measurement was carried out as follows: The rat was administered with 1 ml heparin and a blood sample was taken from the rat. Then physiological saline solution was circulated throughout the rat, and the various organs were extirpated from the rat. To each organ and the blood sample was added 3 ml nitric acid, followed by standing for one hour. The resultant was added with 25% hydrogen peroxide aqueous solution and then allowed to stand overnight at room temperature. The resultant solution was warmed and added with 6 ml water. The insolubles were removed by filtration, and the filtrate was analyzed by ICP.

Data set [3] concerns exfoliated endothelial site (balloon-injured left carotid artery). The data set is described as follows: Ex vivo MRI of extirpated carotid arteries after injection into balloon-injured living rat. Conditions: 2 ml of 24 mM via right jugular vein, FIG. 3. In kind it is in vivo. The method, then:
The contrast agent of the present invention was evaluated for imaging capability by means of an ex vivo experiment using a living rat. A balloon-tip catheter was passed through the left femoral artery of the rat to injure the carotid artery with the balloon. Then 2 ml of aqueous saline solution containing 24 mM of the contrast agent (EBDTPA-Gd prepared in Example 1) was injected to the rat through the right jugular vein. After a predetermined period of time (10, 30 or 120 minutes), the right carotid artery and the left carotid artery were extirpated, developed, washed with a physiological saline, and then subjected to evaluation by MRI. The MRI evaluation was carried out by imaging the extirpated carotid artery sections, under the condition of being added with one or two droplets of physiological saline solution, by the T1 weighted spin echo method. In FIG. 3, by “injured” is denoted the exfoliated endothelial site (the left carotid artery), which had been injured by the balloon, while “intact” denotes the normal endothelial site (the right carotid artery). The photographs of the developed vascular samples as presented in FIG. 3 reveal purple coloring with intensities corresponding to the MRI signal intensities described later. The pictures (A) as presented in FIG. 3 below the photographs of the developed vascular samples illustrate the states of the samples prepared for the study by MRI. As illustrated, each carotid artery section was developed on a glass plate and covered with one or two droplets of physiological saline solution, for the MRI study.

For data set [4], the system named is exfoliated endothelial site of aortic vascular section. The data set is described as follows: In vitro MRI imaging capability on aortic vascular section extirpated from a pig. Conditions: pig aortic section immersed in 10 mM aqueous solution for ten seconds. The method, then: For the contrast agent as synthesized (prepared) in Example 1, evaluation of in vitro imaging capability by MRI was carried out with an aortic vascular section extirpated from a pig, as a specimen.
The aortic vascular section extirpated from a pig was spread in a rectangular shape measuring about 2 cm×3 cm to prepare a vascular section sample. The endothelial surface of the left half of the sample was exfoliated with a scalpel. The sample was then immersed in a 10 mM aqueous solution of the contrast agent for ten seconds. Following thorough washing with physiological saline solution, the sample was subjected to the evaluation by MRI as well as by visual observation.
FIG. 2 (A) is a picture taken with a digital camera, which corresponds to the visual observation. […] FIG. 2 (B) is an MRI image (by the T1 weighted spin echo method).

`O=C([O-])CN(CCN(CC(=O)[O-])CC(=O)O)CCN(CC(=O)[O-])CC(=O)O.[Gd+3]` [DTPA-Gd, reference compound]: in data set [1], the “MRI signal in the injured left common carotid artery (image)” value is “no such signal was observed” and the “MRI signal intensity of injured common carotid artery versus normal common carotid artery” value is given as “no substantial difference”.

Regarding `Cc1cc(-c2ccc(NC(=O)CN(CCN(CCN(CC(=O)O)CC(=O)O)CC(=O)O)CC(=O)O)c(C)c2)ccc1N=Nc1ccc2c(S(=O)(=O)O)cc(S(=O)(=O)O)c(N)c2c1O` [contrast agent of the present invention], the “Gd content remaining in various organs” value in data set [2] (rat organs and blood, ICP, FIG. 4) was “substantially no remaining Gd in organs other than the blood and kidney”. In data set [2] (rat, ten minutes after the administration), the “colour of urine (excretion through the kidney)” value is “colored purple”. For the same molecule, the “difference in MRI signal intensity between exfoliated site and normal site” value in data set [3] (after 120 minutes) is listed as “no substantial difference”. The “difference in MRI signal intensity between exfoliated endothelial site and normal site” value in data set [3] (after thirty minutes) is on record as “the difference in the signal intensity therebetween shortened”. Also, the “MRI signal intensity of the injured site relative to the normal site” value in data set [3] (ten minutes from the injection) came to 1.74 times. For the same molecule, the “visual observation of the exfoliated endothelial site” value in data set [4] (FIG. 2(A)) is “colored blue”. The “MRI signal intensity at the exfoliated endothelial site relative to the normal endothelial site” value in data set [4] (T1 weighted spin echo, FIG. 2(C)) is listed as “about ten”. In addition, in data set [1], the “MRI signal in the injured left common carotid artery (image)” value is recorded as “clear MRI signal” and the “MRI signal intensity of injured common carotid artery versus normal common carotid artery” value is given as “higher than that for the normal right common carotid artery”.
